Source: patent publication US11939348B2, “Compositions comprising a phosphorus derivative of nicotinamide riboside and methods for modulation of nicotinamide adenine dinucleotide” (Metro International Biotech, LLC, priority 2019, dated 2024)

Test system: AML12 cells
Experiment: NAD(H) normalized to total protein in treated AML12 cells compared to untreated cells
Format: cell-based
Conditions: compound at 2 mM, 1 mM and 500 micromolar, untreated cells normalized to 1.0, FIG. 1
Description: Compound A is Formula I, n=2. Compound B is Formula I, n=1.

| SMILES | NAD(H) normalized to total protein in treated AML12 cells compared to untreated cells |
| --- | --- |
| NC(=O)c1ccc[n+]([C@@H]2O[C@H](COP(=O)([O-])OP(=O)([O-])OCC3O[C@@H]([n+]4cccc(C(N)=O)c4)[C@H](O)[C@@H]3O)[C@@H](O)[C@H]2O)c1 (some centres unmarked) [Compound A] | possess NAD(H) boosting activity |
| NC(=O)c1ccc[n+]([C@@H]2O[C@H](COP(=O)(O)OC[C@H]3O[C@@H]([n+]4cccc(C(N)=O)c4)[C@H](O)[C@@H]3O)[C@@H](O)[C@H]2O)c1 [Compound B, bis(((2R,3S,4R,5R)-5-(3-carbamoylpyridin-1-ium-1-yl)-3,4-dihydroxytetrahydrofuran-2-yl)methyl) phosphate acetate] | possess NAD(H) boosting activity |
